Key:
[1] = GABA–CTP BBB penetration experiment: GABA in plasma of mice by LC–MS; format: in vivo, mice (Kunming); conditions: male mice, one bolus intravenous injection via tail vein (GABA 50 mg/kg, GABA–CPP 10 mg/kg)
mice = assay: Behavior of the mice after injection; format: in vivo, mice (Kunming); conditions: intravenous injection, GABA 50 mg/kg or GABA–CPP 10 mg/kg, symptom with GABA–CPP appeared a bit worse

GABA concentration in plasma within 2 min after injection [1]: 7985 ng/mL
GABA concentration in plasma within 1 h after injection [1]: 141 ng/mL
Structure (SMILES): NCCCC(=O)O [GABA, γ-aminobutyric acid]
behavior of the mice after injection (mice): quiet and sleepy behavior
